Where two headings read alike, the source gives them in different places.
Experiments:
[1] = in vitro; conditions: African green monkey
[2] = test system: DENV-1 strain TC974#666; test: Tetravalent RT-qPCR assay Protocol A, serotype 1; assay type: cell-based; conditions: Dengue virus, DENV1, 72 h; RT-qPCR serotype 1 TC974#666, Vero cells, day 3
Protocol: (§1) The antiviral activity of the compounds of the invention was tested against DENV-1 strain TC974#666 (NCPV), DENV-2 strain 16681, DENV-3 strain H87 (NCPV) and DENV-4 strains H241 (NCPV) and EDEN (SG/06K2270DK1/2005; GenBank accession number QG398256) in a RT-qPCR assay. Therefore, Vero cells were infected with either DENV-1, or -2, or -3, or -4 in the presence or absence of test compounds. At day 3 post-infection, the cells were lysed and cell lysates were used to prepare cDNA of both a viral target (the 3′UTR of DENV; Table 2) and a cellular reference gene (β-actin, Table 2). Subsequently, a duplex real time PCR was performed on a Lightcycler480 instrument. The generated Cp value is inversely proportional to the amount of RNA expression of these targets. Inhibition of DENV replication by a test compound results in a shift of Cp's for the 3′UTR gene. On the other hand, if a test compound is toxic to the cells, a similar effect on β-actin expression will be observed. The comparative ΔΔCp method is used to calculate EC50, which is based on the relative gene expression of the target gene (3′UTR) normalized with the cellular housekeeping gene (β-actin). In addition, CC50 values are determined based on the Cp values acquired for the housekeeping gene β-actin.
(§2) The culture medium consisted of minimal essential medium supplemented with 2% of heat-inactivated fetal calf serum, 0.04% gentamycin (50 mg/mL) and 2 mM of L-glutamine. Vero cells, obtained from ECACC, were suspended in culture medium and 75 μL/well was added in 96-well plates (10000 cells/well), which already contain the antiviral compounds. […] In addition, each plate contains wells which are assigned as virus controls (containing cells and virus in the absence of compound) and cell controls (containing cells in the absence of virus and compound). Once the cells were added in the plates, the plates were incubated in a fully humidified incubator (37° C., 5% CO2) until the next day. Dengue viruses serotype-1, 2, 3 and 4 were diluted in order to obtain a Cp of ˜22-24 in the assay. Therefore, 25 μL of virus suspension, was added to all the wells containing test compound and to the wells assigned as virus control. In parallel, 25 μL of culture medium was added to the cell controls. Next, the plates were incubated for 3 days in a fully humidified incubator (37° C., 5% CO2). After 3 days, the supernatant was removed from the wells and the cells were washed twice with ice-cold PBS (−100 μL). The cell pellets within the 96-well plates were stored at −80° C. for at least 1 day. Next, RNA was extracted using the Cells-to-CT™ lysis kit, according to the manufacturer's guideline (Life Technologies). The cell lysates can be stored at −80° C. or immediately used in the reverse transcription step.
(§3) In preparation of the reverse transcription step, mix A (table 3A) was prepared and 7.57 μL/well was dispensed in a 96-well plate. After addition of 5 μL of the cell lysates, a five minute denaturation step at 75° C. was performed (table 3B). Afterwards, 7.43 μL of mix B was added (table 3C) and the reverse transcription step was initiated (table 3D) to generate cDNA.
(§4) Finally, a RT-qPCR mix was prepared, mix C (table 4A), and 22.02 μL/well was dispensed in 96-well LightCycler qPCR plates to which 3 μL of cDNA was added and the qPCR was performed according to the conditions in table 4B on a LightCycler 480.
(§5) Using the LightCycler software and an in-house LIMS system, dose response curves for each compound were calculated and the half maximal effective concentration (EC50) and the half maximal cytotoxic concentration (CC50) were determined (Tables 5-8).

[3] = test system: DENV-4 strain H241; test: Tetravalent RT-qPCR assay Protocol A, serotype 4 H241; assay type: cell-based; conditions: Dengue virus, DENV4, 72 h; RT-qPCR serotype 4 H241, Vero cells, day 3
Protocol: as §1, §2, §3, §4, §5

[4] = test system: DENV-4 strain EDEN (SG/06K2270DK1/2005); test: Tetravalent RT-qPCR assay Protocol A, serotype 4 EDEN; assay type: cell-based; conditions: Dengue virus, DENV4, 72 h; RT-qPCR serotype 4 EDEN, Vero cells, day 3
Protocol: as §1, §2, §3, §4, §5

[5] = test system: DENV-2 16681 strain labeled with eGFP; test: DENV-2 antiviral assay (eGFP fluorescence read-out in Vero cells); assay type: cell-based, Dengue virus; conditions: DENV-2 16681 eGFP, MOI 0.5, 3 days
Protocol: The antiviral activity of all the compounds of the invention was tested against the DENV-2 16681 strain which was labeled with enhanced green fluorescent protein (eGPF). The culture medium consists of minimal essential medium supplemented with 2% of heat-inactivated fetal calf serum, 0.04% gentamycin (50 mg/mL) and 2 mM of L-glutamine. Vero cells, obtained from ECACC, were suspended in culture medium and 25 μL was added to 384-well plates (2500 cells/well), which already contain the antiviral compounds. Typically, these plates contain a 5-fold serial dilution of 9 dilution steps of the test compound at 200 times the final concentration in 100% DMSO (200 nL). […] Finally, each plate contains wells which are assigned as virus controls (containing cells and virus in the absence of compound), cell controls (containing cells in the absence of virus and compound) and medium controls (containing medium in the absence of cells, virus and compounds). To the wells assigned as medium control, 25 μL of culture medium was added instead of Vero cells. Once the cells were added to the plates, the plates were incubated for 30 minutes at room temperature to allow the cells to distribute evenly within the wells. Next, the plates were incubated in a fully humidified incubator (37° C., 5% CO2) until the next day. Then, DENV-2 strain 16681, labeled with eGFP, was added at a multiplicity of infection (MOI) of 0.5. Therefore, 15 μL of virus suspension was added to all the wells containing test compound and to the wells assigned as virus control. In parallel, 15 μL of culture medium was added to the medium and cell controls. Next, the plates were incubated for 3 days in a fully humidified incubator (37° C., 5% CO2). At the day of the read out, the eGFP fluorescence was measured using an automated fluorescence microscope at 488 nm (blue laser). Using an in-house LIMS system, inhibition dose response curves for each compound were calculated and the half maximal effective concentration (EC50) was determined. Therefore, the percent inhibition (I) for every test concentration is calculated using the following formula: I=100*([…])/(SVC−SCC); ST, SCC and SVC are the amount of eGFP signal in the test compound, cell control and virus control wells, respectively. The EC50 represents the concentration of a compound at which the virus replication is inhibited with 50%, as measured by a 50% reduction of the eGFP fluorescent intensity compared to the virus control. The EC50 is calculated using linear interpolation (Table 1).

[6] = test system: DENV-2 strain 16681; test: Tetravalent RT-qPCR assay Protocol A, serotype 2; assay type: cell-based; conditions: Dengue virus, DENV2, 72 h; RT-qPCR serotype 2 16681, Vero cells, day 3
Protocol: as §1, §2, §3, §4, §5

[7] = test system: DENV-3 strain H87; test: Tetravalent RT-qPCR assay Protocol A, serotype 3; assay type: cell-based; conditions: Dengue virus, DENV3, 72 h; RT-qPCR serotype 3 H87, Vero cells, day 3
Protocol: as §1, §2, §3, §4, §5

[8] = in vitro; assay type: cell-based; conditions: African green monkey, CC50
Protocol: as §1, §2, §5

[9] = test system: Vero cells; conditions: African green monkey
[10] = test system: Vero cells; test: in vitro; assay type: cell-based; conditions: African green monkey, 3 days
Protocol: as §1, §2, §5

COc1cc(NC(C(=O)c2c[nH]c3cc(F)ccc23)c2ccc(F)cc2OCCO)cc(S(C)(=O)=O)c1 (single isomer, unassigned) [Compound 1A, 1-(6-fluoro-1H-indol-3-yl)-2-(4-fluoro-2-(2-hydroxyethoxy)phenyl)-2-((3-methoxy-5-(methylsulfonyl)phenyl)amino)ethanone]
CC50 [1]: 8600 nM
EC50 [2]: 8.5 nM
EC50 [3]: 290 nM
EC50 [4]: 3.6 nM
EC50 [5]: 0.78 nM
EC50 [6]: 1.1 nM
EC50 [7]: 68 nM

COc1cc(NC(C(=O)c2c[nH]c3cc(Cl)ccc23)c2ccc(F)cc2OCCO)cc(S(C)(=O)=O)c1 (single isomer, unassigned) [Compound 2A, 1-(6-chloro-1H-indol-3-yl)-2-(4-fluoro-2-(2-hydroxyethoxy)phenyl)-2-((3-methoxy-5-(methylsulfonyl)phenyl)amino)-ethanone]
CC50 at 3 days [8]: 4800 nM
EC50 [2]: 2.8 nM
EC50 [3]: 170 nM
EC50 [4]: 2.3 nM
EC50 [5]: 0.32 nM
EC50 [6]: 0.4 nM
CC50 [9]: 4900 nM
EC50 [7]: 48 nM

COc1cc(NC(C(=O)c2c[nH]c3c(C)c(F)ccc23)c2ccc(F)cc2OCCO)cc(S(C)(=O)=O)c1 (single isomer, unassigned) [Compound 3A, 2-(4-fluoro-2-(2-hydroxyethoxy)phenyl)-1-(6-fluoro-7-methyl-1H-indol-3-yl)-2-((3-methoxy-5-(methylsulfonyl)phenyl)amino)ethanone]
CC50 at 3 days [8]: > 2500 nM
EC50 [2]: 3.3 nM
EC50 [3]: 190 nM
EC50 [4]: 5.1 nM
EC50 [5]: 0.4 nM
EC50 [6]: 0.43 nM
CC50 [9]: 4000 nM
EC50 [7]: 45 nM

COc1cc(NC(C(=O)c2c[nH]c3c(C)c(Cl)ccc23)c2ccc(F)cc2OCCO)cc(S(C)(=O)=O)c1 (single isomer, unassigned) [Compound 4B, 1-(6-chloro-7-methyl-1H-indol-3-yl)-2-(4-fluoro-2-(2-hydroxyethoxy)phenyl)-2-((3-methoxy-5-(methylsulfonyl)phenyl)amino)ethanone]
CC50 at 3 days [8]: > 2500 nM
EC50 [2]: 3.3 nM
EC50 [3]: 140 nM
EC50 [4]: 3.2 nM
EC50 [5]: 0.2 nM
EC50 [6]: 0.21 nM
CC50 [9]: 3800 nM
EC50 [7]: 55 nM

COc1cc(NC(C(=O)c2c[nH]c3cc(F)c(F)cc23)c2ccc(F)cc2OCCO)cc(S(C)(=O)=O)c1 (single isomer, unassigned) [Compound 5A, 1-(5,6-difluoro-1H-indol-3-yl)-2-(4-fluoro-2-(2-hydroxyethoxy)phenyl)-2-((3-methoxy-5-(methylsulfonyl)phenyl)-amino)ethanone]
CC50 at 3 days [8]: > 2500 nM
EC50 [2]: 4.1 nM
EC50 [3]: 180 nM
EC50 [4]: 3.7 nM
EC50 [5]: 0.51 nM
EC50 [6]: 0.71 nM
CC50 [9]: 3400 nM
EC50 [7]: 61 nM

COc1cc(NC(C(=O)c2c[nH]c3cc(OC)c(C)cc23)c2ccc(F)cc2OCCO)cc(S(C)(=O)=O)c1 (single isomer, unassigned) [Compound 6A, 2-(4-fluoro-2-(2-hydroxyethoxy)phenyl)-2-((3-methoxy-5-(methylsulfonyl)phenyl)amino)-1-(6-methoxy-5-methyl-1H-indol-3-yl)ethanone]
EC50 [2]: 3.5 nM
EC50 [3]: 110 nM
EC50 [4]: 3.4 nM
EC50 [5]: 0.47 nM
EC50 [6]: 0.84 nM
CC50 [9]: 5600 nM
EC50 [7]: 43 nM

COc1cc(NC(C(=O)c2c[nH]c3ccc(OC(F)(F)F)cc23)c2ccc(F)cc2OCCO)cc(S(C)(=O)=O)c1 (single isomer, unassigned) [Compound 10B, 2-(4-fluoro-2-(2-hydroxyethoxy)phenyl)-2-((3-methoxy-5-(methylsulfonyl)phenyl)amino)-1-(5-(trifluoromethoxy)-1H-indol-3-yl)ethanone]
CC50 at 3 days [8]: > 2500 nM
EC50 [2]: 0.2 nM
EC50 [3]: 12 nM
EC50 [5]: 0.12 nM
EC50 [6]: 0.057 nM
CC50 [9]: 2600 nM
EC50 [7]: 2.1 nM

COc1cc(NC(C(=O)c2c[nH]c3cc(OC)c(OC(F)(F)F)cc23)c2ccc(F)cc2OCCO)cc(S(C)(=O)=O)c1 (single isomer, unassigned) [Compound 11B, 2-(4-fluoro-2-(2-hydroxyethoxy)phenyl)-2-((3-methoxy-5-(methyl-sulfonyl)phenyl)amino)-1-(6-methoxy-5-(trifluoromethoxy)-1H-indol-3-yl)ethanone]
CC50 [10]: > 2500 nM
CC50 at 3 days [8]: > 2500 nM
EC50 [2]: 0.6 nM
EC50 [3]: 34 nM
EC50 [5]: 0.2 nM
EC50 [6]: 0.14 nM
CC50 [9]: 2400 nM
EC50 [7]: 7.3 nM

COc1cc(NC(C(=O)c2c[nH]c3c(C)cc(OC(F)(F)F)cc23)c2ccc(F)cc2OCCO)cc(S(C)(=O)=O)c1 (single isomer, unassigned) [Compound 12A, 2-(4-fluoro-2-(2-hydroxyethoxy)phenyl)-2-((3-methoxy-5-(methylsulfonyl)phenyl)amino)-1-(7-methyl-5-(trifluoromethoxy)-1H-indol-3-yl)ethanone]
CC50 at 3 days [8]: > 1000 nM
EC50 [2]: 0.2 nM
EC50 [3]: 14 nM
EC50 [5]: 0.099 nM
EC50 [6]: 0.075 nM
CC50 [9]: 2200 nM
EC50 [7]: 3.2 nM

Reference: patent US10786484B2, “Mono- or di-substituted indole derivatives as dengue viral replication inhibitors” (Janssen Pharmaceuticals, Inc., priority 2015, dated 2020)
